Experimental data as given in patent US7078428B2, “Isoindolone derivatives, preparation process and intermediates of this process, their use as medicaments, and pharmaceutical compositions comprising them” (Sanofi-Aventis Deutschland GmbH, priority 2002, dated 2006).
pIC50: −log10 of the molar value. “And” between values parts separate entries of the source, which are not always exact repeats. Equal entries are not always repeated. Structures can show the parent of a compound that is named as a salt.

These compounds were tested against T1, NHE1 (Homo sapiens, UniProt P19634) (assay: NHE inhibition FLIPR test (intracellular pH recovery, BCECF) in transfected LAP-1 cells). Conditions: transfected cell line (parental LAP-1) expressing the NHE-1 subtype, pHi recovery after acidification.
T1 construct: expressed in transfected cells
Format: cell-based
Description: The NHE inhibitory activities (IC50 values) of the compounds according to the invention were determined by a FLIPR test.
The test is performed in the FLIPR (Fluorescent Imaging Plate Reader) equipped with clear-bottomed and black-walled 96-well microtitration plates.
The growth medium for the transfected cells (Iscove +10% foetal calf serum) also comprises G418 as selection antibiotic to ensure the presence of transfected sequences.
The actual test begins by eliminating the growth medium and adding 100 μl of loading buffer per well (5 μM of BCECF-AM [2′,7′-bis(2-carboxyethyl)-5-(6)-carboxyfluoresceine acetoxymethyl ester] in 20 mM of NH4Cl, 115 mM of choline chloride, 1 mM of CaCl2, 5 mM of KCl, 20 mM of HEPES and 5 mM of glucose; pH 7.4 (adjusted with KOH). The cells are then incubated for 20 minutes at 37° C. This incubation results in the loading of the fluorescent dye into the cells, the fluorescence intensity of which depends on the pHi, and on the NH4Cl, which results in a slight basification of the cells.
The precursor BCECF-AM, a non-fluorescent dye, is, as an ester, capable of crossing the membrane. The actual dye, which is incapable of crossing the membrane, is released inside the cell by esterases.
After this 20-minute incubation, the loading buffer, which comprises NH4Cl and free BCECF-AM, is removed by washing three times in the cell washing device (Tecan Columbus), each wash being performed with 400 μl of washing buffer (133.8 mM of choline chloride, 4.7 mM of KCl, 1.25 mM of MgCl2, 1.25 mM of CaCl2, 0.97 mM of K2HPO4, 0.23 mM of KH2PO4, 5 mM of HEPES and 5 mM of glucose; pH 7.4 (adjusted with KOH)). The residual volume remaining in the wells is 90 μl (possibly between 50 and 125 μl). This washing step removes the free BCECF-AM and results in an intracellular acidification (pHi of 6.3-6.4) due to the removal of the external ammonium ions.
As the equilibrium of the intracellular ammonium with the aqueous ammonia and the protons, by removal of the extracellular ammonium and by the subsequent immediate crossing of the aqueous ammonia across the cell membrane, is disrupted, the washing process results in intracellular protons remaining, which is the cause of the intracellular acidification. This acidification can result finally in the death of the cells if it lasts long enough. It is important here for the washing buffer to be free of sodium (<1 mM), otherwise the extracellular sodium ions would result in an immediate increase in the pHi on account of the activity of the cloned NHE isoforms. It is also important for all the buffers used (loading buffer, washing buffer and regeneration buffer) not to contain any HCO3-ions, otherwise the presence of bicarbonate would result in the activation of bicarbonate-dependent systems that disrupt the pHi regulation, which systems are contained in the LAP-1 parental cell line.
The microtiter plates containing acidified cells are then transferred (up to 20 minutes after the acidification) to the FLIPR. In the FLIPR, the intracellular fluorescent dye is activated with light of a wavelength of 488 nm, which is generated by an argon laser, and the measuring parameters (laser power, illumination time and diaphragm of the […] camera integrated into the FLIPR) are chosen such that the average value of the fluorescent signal per well is between 30,000 and 35,000 relative fluorescence units.
The actual measurement in the FLIPR starts with a photograph being taken by the CCD camera every two seconds under software control. After 10 seconds, the increase in the intracellular pH is initiated by adding 90 μl of regeneration buffer (133.8 mM of NaCl, 4.7 mM of KCl, 1.25 mM of MgCl2, 1.25 mM of CaCl2, 0.97 mM of K2HPO4, 0.23 mM of KH2PO4, 10 mM of HEPES and 5 mM of glucose; pH 7.4 (adjusted with NaOH)) using a 96-well pipette device incorporated into the FLIPR. Some wells, to which is added pure regeneration buffer, serve as positive controls (100% NHE activity). […]

T1 sequence (P19634 whole entry, species assumed): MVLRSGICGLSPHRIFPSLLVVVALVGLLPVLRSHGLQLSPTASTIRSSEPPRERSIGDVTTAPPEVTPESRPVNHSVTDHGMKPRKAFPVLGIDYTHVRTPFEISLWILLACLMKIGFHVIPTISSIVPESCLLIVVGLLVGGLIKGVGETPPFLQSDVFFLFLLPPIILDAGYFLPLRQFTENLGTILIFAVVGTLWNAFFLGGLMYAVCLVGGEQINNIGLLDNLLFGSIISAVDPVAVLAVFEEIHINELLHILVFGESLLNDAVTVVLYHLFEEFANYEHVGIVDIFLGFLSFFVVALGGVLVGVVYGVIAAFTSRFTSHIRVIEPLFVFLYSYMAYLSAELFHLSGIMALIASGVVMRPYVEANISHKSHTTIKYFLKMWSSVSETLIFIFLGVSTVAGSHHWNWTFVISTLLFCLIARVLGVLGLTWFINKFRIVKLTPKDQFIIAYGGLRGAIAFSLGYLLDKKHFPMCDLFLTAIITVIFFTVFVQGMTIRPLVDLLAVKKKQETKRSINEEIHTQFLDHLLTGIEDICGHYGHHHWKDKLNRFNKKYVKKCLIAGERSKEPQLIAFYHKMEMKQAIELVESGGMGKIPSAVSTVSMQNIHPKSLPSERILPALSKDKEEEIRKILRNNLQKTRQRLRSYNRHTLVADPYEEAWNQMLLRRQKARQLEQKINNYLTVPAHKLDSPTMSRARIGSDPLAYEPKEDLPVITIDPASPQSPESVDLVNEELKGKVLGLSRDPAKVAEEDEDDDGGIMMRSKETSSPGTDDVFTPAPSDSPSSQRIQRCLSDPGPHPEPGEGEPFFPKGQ

Row | Compound | pIC50
1 | CC(C)N1C(=O)c2ccccc2C1CC(=O)N=C(N)N (centres unmarked) [Example 7, N-[2-(2-Isopropyl-3-oxo-2,3-dihydro-1H-isoindol-1-yl)acetyl]guanidine] | 6.94
2 | N-[2-(2-Cyclopropylmethyl-3-oxo-5-trifluoromethyl-2,3-dihydro-1H-isoindol-1-yl)acetyl]-guanidine and N-[2-(2-cyclopropylmethyl-3-oxo-6-trifluoromethyl-2,3-dihydro-1H-isoindol-1-yl)acetyl]guanidine [Example 25] | 8.00
3 | [H]/N=C(\N)NC(=O)CC1c2cc(S(C)(=O)=O)ccc2C(=O)N1CC(F)(F)F [Example 36, (R)-N-{2-[6-Methanesulfonyl-3-oxo-2-(2,2,2-trifluoro-ethyl)-2,3-dihydro-1H-isoindol-1-yl]-acetyl}-quanidine and (S)-N-{2-[6-Methanesulfonyl-3-oxo-2-(2,2,2-trifluoro-ethyl)-2,3-dihydro-1H-isoindol-1-yl]-acetyl}-quanidine] | 7.51
4 | CC(C(=O)NC(=N)N)C1c2ccccc2C(=O)N1CCO (single isomer, unassigned) [Example 33] | 5.44 and 5.33
5 | [H]/N=C(\N)NC(=O)CC1c2cc(Cl)c(Cl)cc2C(=O)N1CCC(F)(F)F (single isomer, unassigned) [Example 41b] | 7.39
6 | CC(C)CN1C(=O)c2cccc(F)c2C1CC(=O)N=C(N)N (centres unmarked) [Example 17, N-[2-(7-Fluoro-2-isobutyl-3-oxo-2,3-dihydro-1H-isoindol-1-yl)acetyl]guanidine] | 7.37
7 | N-[2-(6-Chloro-2-cyclopropylmethyl-3-oxo-2,3-dihydro-1H-isoindol-1-yl )-acetyl]-guanidine and N-[2-(5-Chloro-2-cyclopropylmethyl-3-oxo-2,3-dihydro-1H-isoindol-1 yl)-acetyl]-guanidine [Example 24] | 8.11
8 | [H]/N=C(\N)NC(=O)CC1c2cc(Cl)c(Cl)cc2C(=O)N1CC1CC1 (single isomer, unassigned) [Example 42b] | 8.52
9 | N-[2-(5-Bromo-2-isobutyl-3-oxo-2,3-dihydro-1H-isoindol-1-yl)acetyl]guanidine and N-[(6-Bromo-2-isobutyl-3-oxo-2,3-dihydro-1H-isoindol-1-yl)acetyl]guanidine [Example 13] | 7.66
10 | [H]/N=C(\N)NC(=O)CC1c2cc(Cl)c(Cl)cc2C(=O)N1CCC(F)(F)F (single isomer, unassigned) [Example 41c] | 7.72
11 | NC(N)=NC(=O)CC1c2cc(C(F)(F)F)ccc2C(=O)N1CC(F)(F)F (centres unmarked) [Example 21, N-{2-[3-Oxo-2-(2,2,2-trifluoro-ethyl)-6-trifluoromethyl-2,3-dihydro-1H-isoindol-1-yl]-acetyl}-quanidine] | 8.31
12 | N-[2-(5-Chloro-3-oxo-2-(3,3,3-trifluoropropyl)-2,3-dihydro-1H-isoindol-1-yl)acetyl]-guanidine and N-[2-(6-chloro-3-oxo-2-(3,3,3-trifluoropropyl)-2,3-dihydro-1H-isoindol-1-yl)acetyl]quanidine [Example 26] | 8.07
13 | N-[2-(5-Chloro-3-oxo-2-(4,4,4-trifluorobutyl)-2,3-dihydro-1H-isoindol-1-yl)acetyl]-guanidine and N-[2-(6-chloro-3-oxo-2-(4,4,4-trifluorobutyl)-2,3-dihydro-1H-isoindol-1yl)acetyl]guanidine [Example 28] | 7.06
14 | [H]/N=C(\N)NC(=O)CC1c2cc(S(C)(=O)=O)ccc2C(=O)N1CC1CC1 (centres unmarked) [Example 37, N-[2-(2-Cyclopropylmethyl-6-methanesulfonyl-3-oxo-2,3-dihydro-1H-isoindol-1-yl)acetyl]-guanidinium acetate] | 6.73
15 | NC(N)=NC(=O)CC1c2cc(Cl)c(Cl)cc2C(=O)N1C1CC1 (racemic) [Example 43, (R)-N-[2-(5,6-Dichloro-2-cyclopropyl-3-oxo-2,3-dihydro-1H-isoindol-1-yl)-acetyl]-guanidine and (S)-N-[2-(5,6-Dichloro-2-cyclopropyl-3-oxo-2,3-dihydro-1H-isoindol-1-yl)-acetyl]-guanidine] | 7.52
16 | N-[2-(5-Chloro-3-oxo-2-(2,2,2-trifluoroethyl)-2,3-dihydro-1H-isoindol-1-yl)acetyl]-guanidine and N-[2-(6-chloro-3-oxo-2-(2,2,2-trifluoroethyl )-2,3-dihydro-1H-isoindol-1yl)acetyl]quanidine [Example 23] | 7.46
17 | NC(N)=NC(=O)CC1c2cc(C(F)(F)F)ccc2C(=O)N1CC1CC1 (single isomer, unassigned) [Example 38b] | 8.30
18 | N=C(N)NC(=O)CC1c2cc(F)c(F)cc2C(=O)N1CCC(F)(F)F (single isomer, unassigned) [Example 40a] | 6.58
19 | NC(N)=NC(=O)CC1c2cc(C(F)(F)F)ccc2C(=O)N1CC(F)(F)F (single isomer, unassigned) [Example 48, N-{2-[3-Oxo-2-(2,2,2-trifluoro-ethyl)-6-trifluoromethyl-2,3-dihydro-1H-isoindol-1-yl]-acetyl}-guanidine hydrogen fumarate] | 9.70
20 | N=C(N)NC(=O)CC1c2ccccc2C(=O)N1CC(F)(F)F (centres unmarked) [Example 22, N-[2-(3-Oxo-2-(2,2,2-trifluoroethyl)-2,3-dihydro-1H-isoindol-1-yl)acetyl]guanidine] | 7.00
21 | NC(N)=NC(=O)CC1c2ccccc2C(=O)N1Cc1ccccc1 (centres unmarked) [Example 9, N-[2-(2-Benzyl-3-oxo-2,3-dihydro-1H-isoindol-1-yl)acetyl]guanidine] | 6.81

Next, values leading:

Row | pIC50 | Compound
22 | 7.28 | NC(N)=NC(=O)CC1c2cc(Cl)c(Cl)cc2C(=O)N1C1CC1 (single isomer, unassigned) [Example 43a]
23 | 6.17 | NC(N)=NC(=O)CC1c2ccc(C(F)(F)F)cc2C(=O)N1CCC(F)(F)F (single isomer, unassigned) [Example 52b]
24 | 7.74 | NC(N)=NC(=O)CC1c2ccc(Cl)cc2C(=O)N1CC1CC1 (single isomer, unassigned) [Example 56b]
25 | 8.22 | NC(N)=NC(=O)CC1c2ccc(Cl)cc2C(=O)N1CCC(F)(F)F (single isomer, unassigned) [Example 50b]
26 | 7.30 | NC(N)=NC(=O)CC1c2ccc(C(F)(F)F)cc2C(=O)N1CCC(F)(F)F (single isomer, unassigned) [Example 52a]
27 | 7.15 | NC(N)=NC(=O)CC1c2ccc(C(F)(F)F)cc2C(=O)N1CC(F)(F)F (single isomer, unassigned) [Example 47a]
28 | 6.77 | NC(N)=NC(=O)CC1c2cc(C(F)(F)F)ccc2C(=O)N1CCC(F)(F)F (single isomer, unassigned) [Example 51b]
29 | 8.70 | NC(N)=NC(=O)CC1c2cc(Cl)c(Cl)cc2C(=O)N1CC(F)(F)F (centres unmarked) [Example 44a, N-{2-[5,6-Dichloro-3-oxo-2-(2,2,2-trifluoro-ethyl)-2,3-dihydro-1H-isoindol-1-yl]-acetyl}-guanidine acetate]
30 | 6.03 | NC(N)=NC(=O)CC1c2ccc(Cl)cc2C(=O)N1CCCC(F)(F)F (single isomer, unassigned) [Example 54a]
31 | 7.70 | NC(N)=NC(=O)CC1c2cc(Cl)ccc2C(=O)N1CC1CC1 (single isomer, unassigned) [Example 55b]
32 | 8.22 | NC(N)=NC(=O)CC1c2cc(C(F)(F)F)ccc2C(=O)N1CCC(F)(F)F (single isomer, unassigned) [Example 51a]
